The values that follow come from patent publication US12692254B2, “Benzimidazole inhibitors of PAD enzymes” (BRISTOL-MYERS SQUIBB COMPANY, priority 2018, dated 2026).

The structures appear in SMILES notation.

In this experiment the target is human PAD4 (hPAD4) (Homo sapiens, UniProt Q9UM07). The experiment in a line: RFMS human PAD4 functional assay (rapid-fire mass spectrum). Type of experiment: biochemical. To be noted: 5 nM hPAD4 enzyme, 250 μM BAEE, 50 μM Calcium; 30 min preincubation, 90 min reaction at 37° C. The procedure: Compounds of the present invention were assayed as inhibitors of PAD4 using the assay protocol described below.
RFMS tinman PAD4 Functional Assay:
Compounds were solubilized in 100% DMSO to achieve a 10 mM compound concentration. Compound stock solutions were stored at RT. A series of dilutions were prepared in DMSO and mixed 8 times with 20 μl, mixing volume. Final top concentration of compound in the assay is 50 μM. […] 1-90 min enzyme/substrate reaction, 30 min reaction with phenyl glyoxal at 37° C. • Stop solution: 40 μl 5% TCA in ACN
0.13 μL of compound solution was added to 13 μL of 10 nM PAD4 in assay buffer. After 30 min 13 μl of 500 μM of BAEE was added in 25 mM hepes, pH 7.5, 5 mM NaCl, 1 mM DTT, 0.2 mg/ml BS A, 0.01% CHAPS, 50 μM Calcium, 5 μM TPEN was added and the reaction incubated for 90 min at 37° C. The enzymatic reaction was quenched by addition of 15 μl of 6.1N TCA, 100% Final Concentration is 20%, 35 μl of 8.5 mM phenyl glyoxal (final concentration 4 mM) is then added and the reaction is incubated for 30 min at 37° C.
After 30 minutes the plates are spun down to remove all precipitate. The enzyme reaction was quenched with an equal volume of methanol containing internal standard (modified citrulline). Samples were loaded onto the Rapid Fire RF300 system (Agilent) wherein they were first sipped for 1000 ms and then directly loaded to a C18 separations cartridge using a mixture of acetonitrile containing 0.01% formic acid for 3000 ms desalting. The flow rate of the mobile phase was 1.5 ml/min.
The dwell time for each transition was set at 200 ms, and the ESI voltage was used at 5500 with a source temperature of 400° C. Extracted ion peaks for each transition were integrated using the Rapid Fire Integrator software. Peak area of analyte was normalized with internal standard).

Chain of human PAD4 (hPAD4) (Q9UM07 whole entry): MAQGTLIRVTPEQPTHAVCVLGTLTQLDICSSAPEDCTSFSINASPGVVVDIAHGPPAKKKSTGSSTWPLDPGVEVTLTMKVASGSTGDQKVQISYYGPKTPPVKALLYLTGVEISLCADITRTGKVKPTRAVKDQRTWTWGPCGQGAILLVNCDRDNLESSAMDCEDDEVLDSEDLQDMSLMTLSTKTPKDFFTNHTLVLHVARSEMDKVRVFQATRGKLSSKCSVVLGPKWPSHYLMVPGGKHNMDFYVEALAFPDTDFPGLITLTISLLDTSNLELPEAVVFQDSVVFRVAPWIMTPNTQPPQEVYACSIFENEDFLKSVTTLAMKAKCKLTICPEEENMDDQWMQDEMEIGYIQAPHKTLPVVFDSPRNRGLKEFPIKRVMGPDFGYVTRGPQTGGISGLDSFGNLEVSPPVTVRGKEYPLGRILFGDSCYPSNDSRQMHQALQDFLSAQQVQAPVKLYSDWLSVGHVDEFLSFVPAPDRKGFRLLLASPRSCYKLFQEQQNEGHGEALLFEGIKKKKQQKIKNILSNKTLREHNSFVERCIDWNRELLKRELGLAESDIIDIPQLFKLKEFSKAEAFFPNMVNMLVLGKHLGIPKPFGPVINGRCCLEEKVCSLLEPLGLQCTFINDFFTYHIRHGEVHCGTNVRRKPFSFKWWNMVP

Usually IC50 stands for the concentration that gives 50% inhibition. Take `COc1cc(C(=O)N2C[C@H]3CC[C@@H]2[C@@H]3N)cc2nc(-c3cc4cccnc4n3CC3CC3)n(C[C@@H]3CCN(c4cncc(C#N)n4)C3)c12` [Example 207, 6-[(3R)-3-({5-[(1R,4R,7R)-7-amino-2-azabicyclo[2.2.1]heptane-2-carbonyl]-2-[1-(cyclopropylmethyl)-1H-pyrrolo[2,3-b]pyridin-2-yl]-7-methoxy-1H-1,3-benzodiazol-1-yl}methyl)pyrrolidin-1-yl]pyrazine-2-carbonitrile]: the IC50 was 57 nM.
Turning to `COc1cc(C(=O)N2CC3CCC2[C@@H]3N)cc2nc(-c3cc4cccnc4n3CC3CC3)n(Cc3nc[nH]n3)c12` (stereo partly drawn) [Example 509, (7R)-2-{2-[1-(cyclopropylmethyl)-1H-pyrrolo[2,3-b]pyridin-2-yl]-7-methoxy-1-[(1H-l,2,4-triazol-3-yl)methyl]-1H-1,3-benzodiazole-5-carbonyl}-2-azabicyclo[2.2.1]heptan-7-amine], the half-maximal inhibitory concentration (IC50) came to 300 nM.
On to `COc1cc(C(=O)N2C[C@H]3CC[C@@H]2[C@@H]3N)cc2nc(-c3cc4cccnc4n3CC3CC3)n(CC3CN(C(=O)c4ccnc(C)n4)C3)c12` [Example 119, (1R,4R,7R)-2-{2-[1-(cyclopropylmethyl)-1H-pyrrolo[2,3-b]pyridin-2-yl]-7-methoxy-1-{[1-(2-methylpyrimidine-4-carbonyl)azetidin-3-yl]methyl}-1H-1,3-benzodiazole-5-carbonyl}-2-azabicyclo[2.2.1]heptan-7-amine], for which the IC50 amounted to 69 nM.
With `COc1cc(C(=O)N2C[C@H](N)C[C@@H](F)C2)cc2nc(-c3cc4ccccc4n3CC3CC3)n(Cc3cc(C)nn3C)c12` [Example 276, (3R,5R)-1-{2-[1-(cyclopropylmethyl)-1H-indol-2-yl]-1-[(1,3-dimethyl-1H-pyrazol-5-yl)methyl]-7-methoxy-1H-1,3-benzodiazole-5-carbonyl}-5-fluoropiperidin-3-amine], the IC50 was determined as 298 nM.
As for `COc1cc(C(=O)N2C[C@H]3CC[C@@H]2[C@@H]3N)cc2nc(-c3cc4cccnc4n3CC3CC3)n(C[C@H]3CCN(c4cncnc4C#N)C3)c12` [Example 206, 5-[(3S)-3-({5-[(1R,4R,7R)-7-amino-2-azabicyclo[2.2.1]heptane-2-carbonyl]-2-[1-(cyclopropylmethyl)-1H-pyrrolo[2,3-b]pyridin-2-yl]-7-methoxy-1H-1,3-benzodiazol-1-yl}methyl)pyrrolidin-1-yl]pyrimidine-4-carbonitrile], the half-maximal inhibitory concentration (IC50) was 47 nM.
For `COc1cc(C(=O)N2C[C@H]3CC[C@@H]2[C@@H]3N)cc2nc(-c3cc4cccnc4n3CC3CC3)n(CC3CN(c4ncccn4)C3)c12` [Example 30, (1R,4R,7R)-2-{2-[1-(cyclopropylmethyl)-1H-pyrrolo[2,3-b]pyridin-2-yl]-7-methoxy-1-{[1-(pyrimidin-2-yl)azetidin-3-yl]methyl}-1H-1,3-benzodiazole-5-carbonyl}-2-azabicyclo[2.2.1]heptan-7-amine], the IC50 was 84 nM.
For `COc1cc(C(=O)N2C[C@H](N)C[C@@H](F)C2)cc2nc(-c3cc4cccnc4n3CC3CC3)n(Cc3ccn(C)n3)c12` [Example 516, (3R,5R)-1-{2-[1-(cyclopropylmethyl)-1H-pyrrolo[2,3-b]pyridin-2-yl]-7-methoxy-1-[(1-methyl-1H-pyrazol-3-yl)methyl]-1H-1,3-benzodiazole-5-carbonyl}-5-fluoropiperidin-3-amine], the IC50 worked out at 574 nM.
Under `COc1cc(C(=O)N2CC3CCC2[C@@H]3N)cc2nc(-c3cc4cccnc4n3CC3CC3)n(C3CCN(c4ccnc(C)n4)CC3)c12` (stereo partly drawn) [Example 238, (1R.,4R,7R)-2-{2-[1-(cyclopropylmethyl)-1H-pyrrolo[2,3-b]pyridin-2-yl]-7-methoxy-1-[1-(2-methylpyrimidin-4-yl)piperidin-4-yl]-1H-1,3-benzodiazole-5-carbonyl}-2-azabicyclo[2.2.1]heptan-7-amine] stands 922 nM.
Regarding `COC(=O)N[C@H]1C[C@@H](n2c(-c3cc4cccnc4n3CC3CC3)nc3cc(C(=O)N4CC5CCC4[C@@H]5N)cc(OC)c32)C1` (stereo partly drawn) [Example 301, methyl N-[(1s,3s)-3-{5-[(1R,4R,7R)-7-amino-2-azabicyclo[2.2.1]heptane-2-carbonyl]-2-[1-(cyclopropylmethyl)-1H-pyrrolo[2,3-b]pyridin-2-yl]-7-methoxy-1H-1,3-benzodiazol-1-yl}cyclobutyl]carbamate], the 50% inhibitory concentration (IC50) came out at 1000 nM.
In the case of `COc1cc(C(=O)N2CC3CCC2[C@@H]3N)cc2nc(-c3cc4cccnc4n3CC3CC3)n(CC3CN(C(=O)c4cc(F)ccc4F)C3)c12` (stereo partly drawn) [Example 422, (7R)-2-{2-[1-(cyclopropylmethyl)-1H-pyrrolo[2,3-b]pyridin-2-yl]-1-{[1-(2,5-difluorobenzoyl)azetidin-3-yl]methyl}-7-methoxy-1H-1,3-benzodiazole-5-carbonyl}-2-azabicyclo[2.2.1]heptan-7-amine] it was 22 nM; in that of `COc1cc(C(=O)N2C[C@H]3CC[C@@H]2[C@@H]3N)cc2nc(-c3cc4cccnc4n3CC3CC3)n(CC3CN(S(C)(=O)=O)C3)c12` [Example 338, (1R,4R,7R)-2-{2-[1-(cyclopropylmethyl)-1H-pyrrolo[2,3-b]pyridin-2-yl]-1-[(1-methanesulfonylazetidin-3-yl)methyl]-7-methoxy-1H-1,3-benzodiazole-5-carbonyl}-2-azabicyclo[2.2.1]heptan-7-amine], 498 nM.
In the case of `Cn1cc(Cn2c(-c3cc4ccccc4n3CC3CC3)nc3cc(C(=O)N4CC5CCC4[C@@H]5N)cc(F)c32)cn1` (stereo partly drawn) [Example 483, (7R)-2-{2-[1-(cyclopropylmethyl)-1H-indol-2-yl]-7-fluoro-1-[(1-methyl-1H-pyrazol-4-yl)methyl]-1H-1,3-benzodiazole-5-carbonyl}-2-azabicyclo[2.2.1]heptan-7-amine], the half-inhibitory concentration (IC50) is 30 nM.
Under `COc1cc(C(=O)N2C[C@H](N)C[C@@H](F)C2)cc2nc(-c3cc4cccnc4n3CC3CC3)n(Cc3cnn(-c4cncc(F)c4)c3)c12` [Example 406, (3R,5R)-1-{2-[1-(cyclopropylmethyl)-1H-pyrrolo[2,3-b]pyridin-2-yl]-1-{[1-(5-fluoropyridin-3-yl)-1H-pyrazol-4-yl]methyl}-7-methoxy-1H-1,3-benzodiazole-5-carbonyl}-5-fluoropiperidin-3-amine] stands 69 nM; under `COc1cc(C(=O)N2CC3CCC2[C@@H]3N)cc2nc(-c3cc4cccnc4n3CC3CC3)n(CC3CN(C(=O)c4ccccc4F)C3)c12` (stereo partly drawn) [Example 442, (7R)-2-{2-[1-(cyclopropylmethyl)-1H-pyrrolo[2,3-b]pyridin-2-yl]-1-{[1-(2-fluorobenzoyl)azetidin-3-yl]methyl}-7-methoxy-1H-1,3-benzodiazole-5-carbonyl}-2-azabicyclo[2.2.1]heptan-7-amine], 39 nM; under `COc1cc(C(=O)N2C[C@H]3CC[C@@H]2[C@@H]3N)cc2nc(-c3cc4ccccc4n3C)n(CC3CN(c4cncnc4C#N)C3)c12` [Example 44, 5-[3-({5-[(1R,4R,7R)-7-amino-2-azabicyclo[2.2.1]heptane-2-carbonyl]-7-methoxy-2-(1-methyl-1H-indol-2-yl)-1H-1,3-benzodiazol-1-yl}methyl)azetidin-1-yl]pyrimidine-4-carbonitrile], 112 nM.
`COc1cc(C(=O)N2CC3CCC2[C@@H]3N)cc2nc(-c3cc4cccnc4n3CC3CC3)n(Cc3cc(C)nn3C)c12` (stereo partly drawn) [Example 494, (7R)-2-{2-[1-(cyclopropylmethyl)-1H-pyrrolo[2,3-b]pyridin-2-yl]-1-[(1,3-dimethyl-1H-pyrazol-5-yl)methyl]-7-methoxy-1H-1,3-benzodiazole-5-carbonyl}-2-azabicyclo[2.2.1]heptan-7-amine]: the IC50 was found to be 86 nM.
As for `COc1cc(C(=O)N2C[C@H]3CC[C@@H]2[C@@H]3N)cc2nc(-c3cc4cccnc4n3CC3CC3)n(CC3CCN(C(=O)c4ccncn4)CC3)c12` [Example 233, (1R,4R,7R)-2-{2-[1-(cyclopropylmethyl)-1H-pyrrolo[2,3-b]pyridin-2-yl]-7-methoxy-1-{[1-(pyrimidine-4-carbonyl)piperidin-4-yl]methyl}-1H-1,3-benzodiazole-5-carbonyl}-2-azabicyclo[2.2.1]heptan-7-amine], the half-maximal inhibitory concentration (IC50) was determined as 315 nM.
On to `COc1cc(C(=O)N2CC3CCC2[C@@H]3N)cc2nc(-c3cc4cccnc4n3CC3CC3)n([C@H]3C[C@@H](N)C3)c12` (stereo partly drawn) [Example 295, (1R,4R,7R)-2-{2-[1-(cyclopropylmethyl)-1H-pyrrolo[2,3-b]pyridin-2-yl]-7-methoxy-1-[(1s,3s)-3-aminocyclobutyl]-1H-1,3-benzodiazole-5-carbonyl}-2-azabicyclo[2.2.1]heptan-7-amine], for which the IC50 was determined as 282 nM.
For `COc1cc(C(=O)N2C[C@H](N)C[C@@H](F)C2)cc2nc(-c3cc4cccnc4n3CC3CC3)n(Cc3cnn(-c4cccc(C(F)F)n4)c3)c12` [Example 375], the IC50 was found to be 35 nM.
Regarding `COc1cc(C(=O)N2CC3CCC2[C@@H]3N)cc2nc(-c3cc4cccnc4n3CC3CC3)n(CC3CN(S(=O)(=O)c4ccccc4)C3)c12` (some centres unmarked) [Example 326], the IC50 amounted to 197 nM.
